The numbers were not newly measured in patent US5739081A, “Water dispersible granules of liquid pesticides” (ICI Australia Operations Proprietary Ltd., priority 1992, dated 1998), which cites them from elsewhere.

In brackets after ≈: the same amount, converted by molar mass. Like-named read-outs stand apart in the source and are kept apart here.

On to `CON=C(Cc1cccnc1)c1ccc(Cl)cc1Cl` [Pyrifenox], for which the Solubility in water (in water) is 115 mg/L (≈ 390 µM).

For `CC1(C)C(/C=C(\Cl)C(F)(F)F)C1C(=O)OC(C#N)c1cccc(Oc2ccccc2)c1` (stereo not drawn) [Cyhalothrin], the Solubility in water (in water) was 0.003 mg/L (≈ 0.00667 µM).

Consider `CCc1cccc(C)c1N(C(=O)CCl)C(C)COC` (stereo not drawn) [Metolachlor], for which the Solubility in water (in water) was 530 mg/L (≈ 1870 µM).

Regarding `CCOC(=O)/C=C(C)/C=C/CC(C)CCCC(C)C` (stereo not drawn) [Hydroprene], the Solubility in water (in water) is 0.54 mg/L (≈ 2.03 µM).

Turning to `CCSC(=O)N(CC(C)C)CC(C)C` [Butylate], the Solubility in water (in water) is 46 mg/L (≈ 212 µM).

As to `CCCCN(CC)C(=O)SCCC` [Pebulate], the Solubility in water (in water) was 60 mg/L (≈ 295 µM).

With Dinocap, where the note is “in water, in words”, the Solubility in water entry is given as “Sp. soluble”.

`CCCCOC(=O)[C@@H](C)Oc1ccc(Oc2ccc(C(F)(F)F)cn2)cc1` [Fluazifop-P-butyl]: the Solubility in water (in water) was 1 mg/L (≈ 2.61 µM).

As to `CC(Cc1ccc(C(C)(C)C)cc1)CN1C[C@@H](C)O[C@@H](C)C1` (stereo partly drawn) [Fenpropimorph], under “in water”, the Solubility in water was 10 mg/L (≈ 33 µM).

On to `CC(C)N(Cc1ccccc1)C(=O)C(C)(C)C` [Tebutam], for which the Solubility in water entry (in water, in words) is listed as “Almost Insoluble”.

Turning to `CCOP(=S)(OCC)SCCl` [Chlorimephos], the Solubility in water (water) is 60 mg/L (≈ 256 µM).

Consider `COP(=S)(OC)Oc1ccc([N+](=O)[O-])c(C)c1` [Fenitrophion], for which the Solubility in water (in water) was 14 mg/L (≈ 50.5 µM).

As for `CCOP(=O)(N=C1SCC(C)S1)OCC` (stereo not drawn) [Mephosfolan], the Solubility in water (in water) is 57 mg/L (≈ 212 µM).

For `CCOP(=S)(OCC)SCCSCC` [Disulfoton], for the setting “in water”, the Solubility in water was 25 mg/L (≈ 91.1 µM).

In the case of `CCOP(=S)(OCC)Oc1ccc([N+](=O)[O-])cc1` [Parathion], the Solubility in water (in water) was 24 mg/L (≈ 82.4 µM).

As to `CCNP(=S)(OC)O/C(C)=C/C(=O)OC(C)C` (stereo not drawn) [Propetamphos], the Solubility in water (in water) is 110 mg/L (≈ 391 µM).

With `CCSCCSP(=S)(OC)OC` [Thiometon], the Solubility in water (in water) was 200 mg/L (≈ 812 µM).

For the molecule `CCOP(=S)(NC(C)C)Oc1ccccc1C(=O)OC(C)C` (stereo not drawn) [Isofenphos], for the setting “in water”, the Solubility in water is 23.8 mg/L (≈ 68.9 µM).

As to `CCCC1COC(Cn2cncn2)(c2ccc(Cl)cc2Cl)O1` (stereo not drawn) [Propiconazole], the Solubility in water (in water) was 110 mg/L (≈ 321 µM).

For the molecule `CCOP(=S)(NC(C)CC)Oc1cc(C)ccc1[N+](=O)[O-]` (stereo not drawn) [Butamifos], the Solubility in water (in water) is 5.1 mg/L (≈ 15.3 µM).

For `CCCCCCCCCCCCCN1CC(C)OC(C)C1` (stereo not drawn) [Tridemorph], the Solubility in water (in water) is 11.7 mg/L (≈ 39.3 µM).

As to `CNC(=O)CSP(=O)(OC)OC` [Omethoate], the Solubility in water (in water) was 500 mg/L (≈ 2350 µM).

For the molecule `CCN(CC)c1nc(C)cc(OP(=S)(OC)OC)n1` [Pirimiphos-methyl], the Solubility in water (in water) was 5 mg/L (≈ 16.4 µM).

Take `C#CCON=C1CC2CCC1(C)C2(C)C` (racemic) [Heptopargil]: the Solubility in water (in water) was 1000 mg/L (≈ 4870 µM).

Regarding `CC1(C)[C@H](C(=O)O[C@H](C#N)c2cccc(Oc3ccccc3)c2)[C@@H]1/C=C(\Cl)C(F)(F)F` [Lambda-cyhalothrin], the Solubility in water (in water) was 0.005 mg/L (≈ 0.0111 µM).

For `CCOP(=S)(OCC)Oc1cc(C)nc(C(C)C)n1` [Diazinon], the Solubility in water (water) is 40 mg/L (≈ 131 µM).

Turning to `CCSCCSP(=O)(OC)OC` [Demeton-S-methyl], the Solubility in water (in water) was 3300 mg/L (≈ 14300 µM).

Regarding `COP(=O)(OC)OC1=C(Cl)C2C=CCC12` (stereo not drawn) [Heptenophos], under “in water”, the Solubility in water is 2200 mg/L (≈ 8780 µM).

Regarding `CCCN(CCC)C(=O)SCc1ccccc1` [Prosulfocarb], the Solubility in water (in water) was 13.2 mg/L (≈ 52.5 µM).

`CCCSP(=O)(OCC)Oc1cnn(-c2ccc(Cl)cc2)c1` (stereo not drawn) [Pyraclofos]: the Solubility in water (in water) was 33 mg/L (≈ 91.5 µM).

Consider `CCCCOCN(C(=O)CCl)c1c(CC)cccc1CC` [Butachlor], for which, where the note is “in water”, the Solubility in water is 23 mg/L (≈ 73.8 µM).

`CCN(CC)C(=O)SCc1ccc(Cl)cc1` [Thiobencarb]: the Solubility in water (in water) is 30 mg/L (≈ 116 µM).

Turning to `CCOP(=O)(OCC)OC(=CCl)c1ccc(Cl)cc1Cl` [Chlorfenvinphos], the Solubility in water (in water) was 145 mg/L (≈ 403 µM).

`CCCSP(=O)(OCC)Oc1ccc(Br)cc1Cl` (stereo not drawn) [Profenofos]: under “water”, the Solubility in water is 20 mg/L (≈ 53.5 µM).

`CC1(C)C(C=C(Cl)Cl)C1C(=O)OCc1cccc(Oc2ccccc2)c1` (stereo not drawn) [Permethrin]: the Solubility in water (water) was 0.2 mg/L (≈ 0.511 µM).

On to `C#CCOS(=O)OC1CCCCC1Oc1ccc(C(C)(C)C)cc1` (stereo not drawn) [Propargite], for which the Solubility in water (in water) was 1.9 mg/L (≈ 5.42 µM).
